Reference: ChEMBL document CHEMBL5352415, “Discovery of new macrophage M2 polarization modulators as multiple sclerosis treatment agents that enable the inflammation microenvironment remodeling” (Eur J Med Chem, 2022)
pIC50: −log10 of the molar value. The source made the active and inactive calls. The calls are words filed in the database; no cut-off is given here.

How the values were obtained:
[1] = molecular target: RAC-alpha serine/threonine-protein kinase (Homo sapiens, UniProt P31749); test: Inhibition of AKT1 (unknown origin); assay type: binding
[2] = molecular target: RAC-beta serine/threonine-protein kinase (Homo sapiens, UniProt P31751); test: Inhibition of AKT2 (unknown origin); assay type: binding
[3] = Tmax in ICR mouse at 50 mg/kg, po measured upto 24 hrs by LC/MS analysis; assay type: ADME, organism-based; conditions: in vivo
[4] = Half-life in ICR mouse at 50 mg/kg, po measured upto 24 hrs by LC/MS analysis; assay type: ADME, organism-based; conditions: in vivo
[5] = Cmax in ICR mouse at 50 mg/kg, po measured upto 24 hrs by LC/MS analysis; assay type: ADME, organism-based; design: dose 50 mg/kg, time < 24 hrs, route po; conditions: in vivo
[6] = AUC(0 to infinity) in ICR mouse at 50 mg/kg, po measured upto 24 hrs by LC/MS analysis; assay type: ADME, organism-based; design: dose 50 mg/kg, time < 24 hrs, route po; conditions: in vivo
Mus musculus [7] = test: (§1) Anti-inflammatory activity in MOG (35 to 55 residues)/pertussis toxin-induced experimental autoimmune encephalomyelitis C57BL/6 mouse model assessed as decrease in disease progression by measuring cumulative score at 75 to 150 mg/kg, po administered once daily starting from day 7 to day 20; assay type: functional, organism-based; conditions: dose 75-150 mg/kg, time 14.0 day
Mus musculus [8] = test: Anti-inflammatory activity in MOG (35 to 55 residues)/pertussis toxin-induced experimental autoimmune encephalomyelitis C57BL/6 mouse model assessed as attenuation of demyelination in spinal cord at 75 to 150 mg/kg, po administered once daily starting from day 7 to day 20 by luxol fast blue staining based analysis; assay type: functional, organism-based; conditions: dose 75-150 mg/kg, time 14.0 day
Mus musculus [9] = test: Anti-inflammatory activity in MOG (35 to 55 residues)/pertussis toxin-induced experimental autoimmune encephalomyelitis C57BL/6 mouse model assessed as decrease in infiltrated inflammatory cells administered orally once daily starting from day 7 to day 20 by H&E staining based analysis; assay type: functional, organism-based; conditions: dose 75-150 mg/kg, route po, time 14.0 day
Mus musculus [10] = test: as §1, with “M2 macrophage polarization” for “decrease in disease progression”, “increase in Ym1 mRNA expression in CNS” for “cumulative score”, “20 by qRT-PCR analysis” for “20”; assay type: functional, organism-based; conditions: dose 75-150 mg/kg, time 14.0 day
Mus musculus [11] = test: (§2) Anti-inflammatory activity in MOG (35 to 55 residues)/pertussis toxin-induced experimental autoimmune encephalomyelitis C57BL/6 mouse model assessed as inhibition of M1 macrophage polarization by measuring decrease in Mcp1 mRNA expression in CNS administered orally once daily starting from day 7 to day 20 by qRT-PCR analysis; assay type: functional, organism-based; conditions: dose 75-150 mg/kg, route po, time 14.0 day
Mus musculus [12] = test: as §2, with “Inos” for “Mcp1”; assay type: functional, organism-based; conditions: dose 75-150 mg/kg, route po, time 14.0 day
Mus musculus [13] = test: as §2, with “IL-6” for “Mcp1”, “CNS at 75 to 150 mg/kg, po” for “CNS”, “administered” for “administered orally”; assay type: functional, organism-based; conditions: dose 75-150 mg/kg, time 14.0 day
Mus musculus [14] = test: as §2, with “interferon-gamma” for “Mcp1”, “CNS at 75 to 150 mg/kg, po” for “CNS”, “administered” for “administered orally”; assay type: functional, organism-based; conditions: dose 75-150 mg/kg, time 14.0 day
Mus musculus [15] = test: as §1, with “F4/80+ CD86+ M1 macrophage in spleen” for “disease progression by measuring cumulative score”, “20 by flow cytometric analysis” for “20”; assay type: functional, organism-based; conditions: dose 75-150 mg/kg, time 14.0 day
Mus musculus [16] = test: (§3) Anti-inflammatory activity in MOG (35 to 55 residues)/pertussis toxin-induced experimental autoimmune encephalomyelitis C57BL/6 mouse model assessed as increase in F4/80+ CD206+ M2 macrophage in DLN at 75 to 150 mg/kg, po administered once daily starting from day 7 to day 20 by flow cytometric analysis; assay type: functional; conditions: dose 75-150 mg/kg, time 14 day
Mus musculus [17] = test: as §3, with “spleen” for “DLN”; assay type: functional; conditions: dose 75-150 mg/kg, time 14 day
Mus musculus [18] = test: as §3, with “T cell activation by measuring decrease” for “increase”, “CD44hi CD62Llo T cells” for “F4/80+ CD206+ M2 macrophage”; assay type: functional; design: scale not given: the % may be the effect or the level left; conditions: dose 75-150 mg/kg, time 14 day
Mus musculus [19] = test: (§4) Anti-inflammatory activity in MOG (35 to 55 residues)/pertussis toxin-induced experimental autoimmune encephalomyelitis C57BL/6 mouse model assessed as T cell activation by measuring increase in CD44lo CD62Lhi naive T cells in DLN at 75 to 150 mg/kg, po administered once daily starting from day 7 to day 20 by flow cytometric analysis; assay type: functional, organism-based; conditions: dose 75-150 mg/kg, time 14.0 day
Mus musculus [20] = test: as §4, with “spleen” for “DLN”; assay type: functional, organism-based; conditions: dose 75-150 mg/kg, time 14.0 day
Mus musculus [21] = test: Anti-inflammatory activity in MOG (35 to 55 residues)/pertussis toxin-induced experimental autoimmune encephalomyelitis C57BL/6 mouse model assessed as inhibition of CD4+ T cell differentiation by measuring reduction in Th1 (IFN-gamma+) cells in spleen administered orally once daily starting from day 7 to day 20 by flow cytometric analysis; assay type: functional, organism-based; conditions: dose 75-150 mg/kg, route po, time 14.0 day
[22] = Induction of M2 macrophage polarization in C57BL/6 mouse BMDM cells assessed as fold increase in Arg1 gene level at 1 uM incubated for 24 hrs by qRT-PCR analysis; assay type: functional
[23] = Induction of M2 macrophage polarization in C57BL/6 mouse BMDM cells assessed as fold increase in Ym1 gene level at 1 uM incubated for 24 hrs by qRT-PCR analysis; assay type: functional
[24] = Inhibition of M1 macrophage polarization in C57BL/6 mouse BMDM cells assessed as fold decrease in Inos gene level at 1 uM incubated for 24 hrs by qRT-PCR analysis (reference value: 1); assay type: functional
[25] = Inhibition of M1 macrophage polarization in C57BL/6 mouse BMDM cells assessed as fold change in IL-6 gene level at 1 uM incubated for 24 hrs by qRT-PCR analysis (reference value: 1); assay type: functional
[26] = Inhibition of LPS-induced M1 macrophage polarization in C57BL/6 mouse BMDM cells assessed as fold decrease in Inos gene level at 1 uM preincubated with LPS for 24 hrs followed by compound addition and measured after 24 hrs by qRT-PCR analysis (reference value: 524.05 +/- 24.75); assay type: functional
[27] = Inhibition of LPS-induced M1 macrophage polarization in C57BL/6 mouse BMDM cells assessed as fold change in IL-6 gene level at 1 uM preincubated with LPS for 24 hrs followed by compound addition and measured after 24 hrs by qRT-PCR analysis (reference value: 36.05 +/- 10.74); assay type: functional
[28] = Inhibition of LPS-induced M1 macrophage polarization in C57BL/6 mouse BMDM cells assessed as fold change in IL-1beta gene level at 1 uM preincubated with LPS for 24 hrs followed by compound addition and measured after 24 hrs by qRT-PCR analysis (reference value: 44.88 +/- 1.99); assay type: functional
BMDM = test: Inhibition of LPS-induced M1 macrophage polarization in C57BL/6 mouse BMDM cells assessed as decrease in IFN-gamma level preincubated with LPS for 24 hrs followed by compound addition and measured after 24 hrs by qRT-PCR analysis; assay type: functional, cell-based; conditions: dose 0.05-2 µM
[29] = molecular target: T1, RAC-alpha serine/threonine-protein kinase (Mus musculus, UniProt P31750); test: Inhibition of Akt phosphorylation at Ser473 in C57BL/6 mouse BMDM cells at 50 to 500 nM incubated for 24 hrs by Western blot analysis; assay type: cell-based; conditions: 0.5 µM, dose 50-500 nM
[30] = molecular target: T1, RAC-alpha serine/threonine-protein kinase; test: Inhibition of LPS-induced Akt phosphorylation at Ser473 in C57BL/6 mouse BMDM cells at 50 to 500 nM incubated for 24 hrs by Western blot analysis; assay type: cell-based; conditions: 0.5 µM, dose 50-500 nM

T1 sequence (P31750 whole entry): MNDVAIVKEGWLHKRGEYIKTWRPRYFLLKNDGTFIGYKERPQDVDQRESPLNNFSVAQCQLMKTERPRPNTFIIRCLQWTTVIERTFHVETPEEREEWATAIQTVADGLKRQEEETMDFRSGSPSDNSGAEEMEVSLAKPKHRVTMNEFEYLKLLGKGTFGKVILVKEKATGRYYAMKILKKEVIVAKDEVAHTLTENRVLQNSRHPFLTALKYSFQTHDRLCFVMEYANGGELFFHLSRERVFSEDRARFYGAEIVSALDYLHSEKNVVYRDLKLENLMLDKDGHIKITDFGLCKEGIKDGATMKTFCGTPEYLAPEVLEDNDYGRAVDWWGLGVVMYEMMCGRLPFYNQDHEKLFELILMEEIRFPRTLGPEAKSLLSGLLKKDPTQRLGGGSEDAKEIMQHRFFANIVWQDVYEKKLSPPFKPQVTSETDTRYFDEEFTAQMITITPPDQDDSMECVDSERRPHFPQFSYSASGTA
Chain of RAC-beta serine/threonine-protein kinase (P31751 whole entry): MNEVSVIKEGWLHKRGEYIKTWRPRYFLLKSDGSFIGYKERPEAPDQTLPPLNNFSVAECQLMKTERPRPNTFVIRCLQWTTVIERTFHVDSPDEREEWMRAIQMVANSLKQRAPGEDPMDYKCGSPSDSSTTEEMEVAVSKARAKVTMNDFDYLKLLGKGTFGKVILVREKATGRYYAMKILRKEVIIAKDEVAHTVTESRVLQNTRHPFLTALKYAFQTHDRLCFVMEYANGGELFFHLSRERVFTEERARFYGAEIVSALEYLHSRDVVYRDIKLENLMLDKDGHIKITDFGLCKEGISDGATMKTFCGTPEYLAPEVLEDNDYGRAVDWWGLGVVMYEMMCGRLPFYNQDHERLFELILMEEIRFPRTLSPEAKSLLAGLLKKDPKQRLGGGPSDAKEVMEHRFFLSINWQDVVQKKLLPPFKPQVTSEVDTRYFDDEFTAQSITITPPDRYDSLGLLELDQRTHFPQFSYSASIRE
Chain of RAC-alpha serine/threonine-protein kinase (Homo sapiens, UniProt P31749) (P31749 whole entry): as the sequence (P31750 whole entry) above, with N2S, S50A, A100T, R112K, T117E, T389K, N410G, D415H counted along it

Q: With `Cl.Cn1ncc(Br)c1-c1ccc(C(=O)N[C@@H]2CNCC[C@H]2c2ccc(F)c(F)c2)cc1C1CC1` as the compound, how does the pIC50 [1] read?
A: 6.36

Q: And the pIC50 [2]?
A: < 6.00

Q: What about the Tmax [3] of the same compound?
A: 4 h

Q: What about the half-life [4] of the same compound?
A: 13.7 h

Q: And the Cmax [5]?
A: 1990 ng/mL

Q: And the AUC(0-inf) [6]?
A: 27900 ng·h/mL

Q: What about the Activity (Mus musculus [7]) of the same compound?
A: Active

Q: What about the Activity (Mus musculus [8]) of the same compound?
A: Active

Q: And the Activity (Mus musculus [9])?
A: Dose-Dependent Effect

Q: What about the Activity (Mus musculus [10]) of the same compound?
A: Active

Q: And the Activity (Mus musculus [11])?
A: Dose-Dependent Effect

Q: And the Activity (Mus musculus [12])?
A: Dose-Dependent Effect

Q: What about the Activity (Mus musculus [13]) of the same compound?
A: Active

Q: And the Activity (Mus musculus [14])?
A: Active

Q: And the Activity (Mus musculus [15])?
A: Active

Q: And the Activity (Mus musculus [16])?
A: 10.6%

Q: And the Activity (Mus musculus [17])?
A: 12.4%

Q: What about the Activity (Mus musculus [18]) of the same compound?
A: 29%

Q: And the Activity (Mus musculus [19])?
A: Active

Q: What about the Activity (Mus musculus [20]) of the same compound?
A: Active

Q: And the Activity (Mus musculus [21])?
A: Dose-Dependent Effect

Q: And the “fold change (FC)” value [22]?
A: 10.28

Q: What about the “fold change (FC)” value [23] of the same compound?
A: 14.31

Q: And the “fold change (FC)” value [24]?
A: 0.49

Q: And the “fold change (FC)” value [25]?
A: 2.22

Q: What about the “fold change (FC)” value [26] of the same compound?
A: 195.4

Q: What about the “fold change (FC)” value [27] of the same compound?
A: 69.99

Q: What about the “fold change (FC)” value [28] of the same compound?
A: 71.77

Q: What about the inhibition (BMDM) of the same compound?
A: Dose-Dependent Effect

Q: What about the “inhibition (INH)” value [29] of the same compound?
A: Not Active

Q: And the “inhibition (INH)” value [30]?
A: Not Active
